This is an account of results in ChEMBL document CHEMBL1201862, “PubChem BioAssay data set” (2004).

Assay [1] concerns the target DNA (cytosine-5)-methyltransferase 1 (Homo sapiens, UniProt P26358). The assay is described as follows: DNMT1 methyltransferase inhibitors, confirmation, biochemical, fluorescent molecular beacon (AID 602386). Type of assay: functional.
In assay [2] the target is 72 kDa type IV collagenase (Homo sapiens, UniProt P08253). The assay is described as follows: Dose Response validation of uHTS RPN11 inhibitor hits using a MMP-2 Fluorescence assay. It counts as functional.
Sequence of 72 kDa type IV collagenase (P08253 whole entry): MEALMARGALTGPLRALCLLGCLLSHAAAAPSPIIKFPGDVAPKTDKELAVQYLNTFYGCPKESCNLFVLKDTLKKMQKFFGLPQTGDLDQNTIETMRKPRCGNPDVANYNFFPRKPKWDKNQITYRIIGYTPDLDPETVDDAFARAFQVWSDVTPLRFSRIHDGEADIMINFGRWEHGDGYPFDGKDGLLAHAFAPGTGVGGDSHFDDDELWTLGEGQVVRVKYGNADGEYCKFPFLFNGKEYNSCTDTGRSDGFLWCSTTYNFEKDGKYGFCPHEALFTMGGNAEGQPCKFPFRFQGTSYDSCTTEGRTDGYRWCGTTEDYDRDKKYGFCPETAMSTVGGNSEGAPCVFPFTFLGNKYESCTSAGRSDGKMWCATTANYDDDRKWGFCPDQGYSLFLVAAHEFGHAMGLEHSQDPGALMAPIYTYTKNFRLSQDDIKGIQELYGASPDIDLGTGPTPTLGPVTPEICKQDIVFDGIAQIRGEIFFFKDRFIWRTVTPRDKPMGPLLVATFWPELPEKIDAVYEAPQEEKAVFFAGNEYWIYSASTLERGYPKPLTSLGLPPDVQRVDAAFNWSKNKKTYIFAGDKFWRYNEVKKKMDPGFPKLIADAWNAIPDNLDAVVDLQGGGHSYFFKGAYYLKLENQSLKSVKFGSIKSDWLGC
For assay [3], the target named is DNA dC->dU-editing enzyme APOBEC-3G (Homo sapiens, UniProt Q9HC16). The experiment in a line: Dose Response confirmation of small molecule APOBEC3G DNA Deaminase Inhibitors via a fluorescence-based single-stranded DNA deaminase assay. [Related pubchem assays (depositor defined):AID493012, AID493028]. Type of assay: functional.
Sequence of DNA dC->dU-editing enzyme APOBEC-3G (Q9HC16 whole entry): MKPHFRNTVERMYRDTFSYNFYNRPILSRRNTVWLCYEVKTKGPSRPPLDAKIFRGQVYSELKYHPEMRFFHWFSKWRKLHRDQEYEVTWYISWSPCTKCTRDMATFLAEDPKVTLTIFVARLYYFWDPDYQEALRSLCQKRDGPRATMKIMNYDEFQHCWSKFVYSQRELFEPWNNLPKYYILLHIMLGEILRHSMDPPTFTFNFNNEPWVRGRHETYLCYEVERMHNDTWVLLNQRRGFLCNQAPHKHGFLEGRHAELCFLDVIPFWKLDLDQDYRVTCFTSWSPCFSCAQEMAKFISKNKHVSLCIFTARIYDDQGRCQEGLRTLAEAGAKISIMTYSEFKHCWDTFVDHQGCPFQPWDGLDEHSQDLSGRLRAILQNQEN
For assay [4], the target named is Eukaryotic translation initiation factor 4E (Mus musculus, UniProt P63073). The assay is described as follows: eIF4E–eIF4G protein interaction inhibitors, dose response, biochemical, TR-FRET (AID 855).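 Also: potency for disrupting eIF4E binding to eIF4GI seen as loss of FRET.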 It counts as functional.
Sequence of Eukaryotic translation initiation factor 4E (P63073 whole entry): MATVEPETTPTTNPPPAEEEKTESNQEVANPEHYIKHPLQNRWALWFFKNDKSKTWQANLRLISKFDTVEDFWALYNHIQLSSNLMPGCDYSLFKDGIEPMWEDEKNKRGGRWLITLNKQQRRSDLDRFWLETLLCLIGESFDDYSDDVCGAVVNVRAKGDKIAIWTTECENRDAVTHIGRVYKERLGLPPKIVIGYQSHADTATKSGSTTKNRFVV
In assay [5] the target is DNA dC->dU-editing enzyme APOBEC-3A (Homo sapiens, UniProt P31941). The experiment in a line: APOBEC3A DNA deaminase inhibitors, dose response, biochemical (AID 504722). Type of assay: functional.
The target of assay [6] is E3 ubiquitin-protein ligase UHRF1 (Homo sapiens, UniProt Q96T88). The experiment in a line: Counterscreen for inhibitors of 5-meCpG-binding domain protein 2 (MBD2): TRFRET-based biochemical high throughput dose response assay to identify inhibitors of binding of ubiquitin-like with PHD and ring finger domains 1 (UHRF1) to methylated oligonucleotide.
Sequence of E3 ubiquitin-protein ligase UHRF1 (Q96T88 whole entry, the tested form may be a part): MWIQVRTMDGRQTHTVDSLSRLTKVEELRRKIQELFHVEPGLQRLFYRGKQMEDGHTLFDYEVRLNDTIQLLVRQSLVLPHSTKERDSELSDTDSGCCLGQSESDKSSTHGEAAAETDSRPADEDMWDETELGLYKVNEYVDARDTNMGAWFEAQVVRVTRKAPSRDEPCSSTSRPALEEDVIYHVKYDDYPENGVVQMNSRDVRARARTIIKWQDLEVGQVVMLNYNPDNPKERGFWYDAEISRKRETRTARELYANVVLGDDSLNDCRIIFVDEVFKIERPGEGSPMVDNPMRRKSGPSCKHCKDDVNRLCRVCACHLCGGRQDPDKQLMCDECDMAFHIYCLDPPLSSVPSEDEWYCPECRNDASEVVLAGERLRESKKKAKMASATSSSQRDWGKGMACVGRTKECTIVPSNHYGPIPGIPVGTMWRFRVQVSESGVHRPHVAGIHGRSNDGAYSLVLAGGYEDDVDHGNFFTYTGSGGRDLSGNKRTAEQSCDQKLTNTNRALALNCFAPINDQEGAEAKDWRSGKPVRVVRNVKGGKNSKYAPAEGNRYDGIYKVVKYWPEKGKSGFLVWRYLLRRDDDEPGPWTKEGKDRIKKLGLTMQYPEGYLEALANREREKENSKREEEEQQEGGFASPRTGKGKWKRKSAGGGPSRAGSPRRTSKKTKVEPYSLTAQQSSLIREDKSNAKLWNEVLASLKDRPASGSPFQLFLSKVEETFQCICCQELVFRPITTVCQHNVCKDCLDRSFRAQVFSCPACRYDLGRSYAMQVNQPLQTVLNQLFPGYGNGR
Another assay addresses Prothrombin (Bos taurus, UniProt P00735). The experiment in a line: thrombin inhibition, dose response, biochemical, fluorescence polarization, uHTS hits (AID 602369). It counts as functional.
Assay [7] has as its target 26S proteasome non-ATPase regulatory subunit 14 (Homo sapiens, UniProt O00487). The experiment in a line: inhibition of proteasome subunit RPN11 – biochemical, fluorescence polarization, uHTS hits, confirmation (AID 602368). Type of assay: functional.
Assay [8] concerns the target T1, Carboxy-terminal domain RNA polymerase II polypeptide A small phosphatase 1 (Homo sapiens, UniProt Q9GZU7).
T1 sequence (Q9GZU7 whole entry): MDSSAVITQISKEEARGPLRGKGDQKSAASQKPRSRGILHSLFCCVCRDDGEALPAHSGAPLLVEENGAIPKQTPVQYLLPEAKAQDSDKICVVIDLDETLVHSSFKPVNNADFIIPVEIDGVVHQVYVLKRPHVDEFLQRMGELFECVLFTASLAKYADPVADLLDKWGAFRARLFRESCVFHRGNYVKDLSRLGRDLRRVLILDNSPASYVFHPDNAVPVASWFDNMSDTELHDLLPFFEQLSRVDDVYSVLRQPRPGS
The assay is described as follows: inhibitors of CTDSP1, concentration-response testing, biochemical assay, absorbance-based, actives from ultra-high-throughput screening (AID 540297). It counts as functional.

Assay [9] in a line: cytotoxicity toward DRD oncogenic fibroblasts, dose response, cell-based, non-viral oncogenic, luminescence (AID 1934). It counts as functional. The conditions noted are these: Homo sapiens.
Assay [10] relates to BJ. The experiment in a line: cytotoxicity toward BJ-TERT fibroblasts, dose response, cell-based, RAS-independent, luminescence (AID 1933). It counts as functional. The conditions noted are these: Homo sapiens.
Assay [11] relates to BJ. The assay is described as follows: cells. Type of assay: functional, cell-based. The conditions noted are these: Homo sapiens.
A short description of assay [12]: inhibitors of firefly luciferase expression or activity, dose response, H4 neuroglioma cells, luminescence (AID 1990). Type of assay: functional, cell-based.
Assay [13] can be described thus: Luminescence Cell-Based Dose Response HTS to Identify Inhibitors of 5'UTR Stem-Loop Driven Prion Protein mRNA Translation in H4 Neuroglioblastoma Cells. [Related pubchem assays: 1827 (Project Summary), 1813 (Primary HTS)]. Type of assay: functional.
Assay [14] is described as follows: cytotoxicity in HEK-293T cells, dose response, cytotoxicity control for TCR NF-kB inhibitor project, luminescence, T-cell screen hits (AID 489026).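 Also: cells exposed to compound about 14 hours before the viability readout.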 Type of assay: functional, cell-based.
Assay [15] in a line: HEK293 cell cytotoxicity, dose response, cytotoxicity control, dry powder samples (AID 720567). Type of assay: functional, cell-based.
Assay [16] in a line: inhibitors of SNCA 5'UTR-driven reporter translation, confirmation, H4 neuroglioma cells, luminescence (AID 1988). Type of assay: functional, cell-based.
Assay [17] relates to BJ. The experiment in a line: cytotoxicity toward BJ-TERT-LT-ST fibroblasts, dose response, cell-based, RAS-independent, luminescence (AID 1935).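 Also: BJ fibroblasts immortalized with TERT plus LT and ST oncogenes.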 The conditions noted are these: Homo sapiens. It counts as functional.
The nature of assay [18]: inhibitors of PGC1a acetylation in cells, dose response, cell-based, cherry-picked samples (AID 720514).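 Also: potency may reflect raised or lowered acetylation signal.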 Type of assay: functional.
For the next assay, the target named is Kallikrein-7 (Homo sapiens, UniProt P49862). The assay is described as follows: Fluorescence Intensity-based biochemical primary high throughput dose response assay to identify activators of kallikrein-7 (K7) zymogen.
For assay [19], the target named is T2, Fibrinogen beta chain (Homo sapiens, UniProt P02675). The experiment in a line: Fluorescence polarization-based biochemical high throughput dose response assay to identify inhibitors that disrupt the binding of a cyclic peptide (Tn6) to the fibrin proteolytic product D-Dimer and fragment E complex [DD(E )].
T2 sequence (P02675 whole entry, the tested form may be a part): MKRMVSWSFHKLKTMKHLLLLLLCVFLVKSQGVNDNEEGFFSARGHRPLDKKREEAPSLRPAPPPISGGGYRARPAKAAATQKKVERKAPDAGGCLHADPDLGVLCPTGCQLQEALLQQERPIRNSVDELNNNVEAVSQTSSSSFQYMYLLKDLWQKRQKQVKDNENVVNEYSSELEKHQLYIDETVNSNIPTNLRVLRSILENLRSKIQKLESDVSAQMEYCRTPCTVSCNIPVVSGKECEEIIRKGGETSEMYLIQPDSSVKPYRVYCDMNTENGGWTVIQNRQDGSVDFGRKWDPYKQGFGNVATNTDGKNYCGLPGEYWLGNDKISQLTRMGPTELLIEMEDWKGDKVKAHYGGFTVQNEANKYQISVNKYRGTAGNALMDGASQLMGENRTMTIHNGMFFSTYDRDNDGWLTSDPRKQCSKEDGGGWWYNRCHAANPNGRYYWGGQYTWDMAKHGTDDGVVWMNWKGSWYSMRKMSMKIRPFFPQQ
Assay [20] concerns the target T2, Fibrinogen beta chain. The experiment in a line: Fluorescence polarization-based biochemical high throughput dose response assay to identify inhibitors that disrupt the binding of a cyclic peptide (Tn7) to the fibrin proteolytic product D-Dimer and fragment E complex [DD(E )].
Assay [21] in a line: inhibitors of non-replicating M. tuberculosis, dose response, luciferase, dry powder (AID 651619). The following applies: Mycobacterium tuberculosis. Type of assay: functional.
Assay [22] can be described thus: NIH:OVCAR-3 ovarian cancer cell cytotoxicity, dose response, PAX8 inhibitor project, plate reader, dry powder samples (AID 743044). Type of assay: functional, cell-based.
The next assay has as its target Paired box protein Pax-8 (Homo sapiens, UniProt Q06710). The experiment in a line: inhibitors of PAX8-driven TPO luciferase reporter, dose response, RMG-I cells, cherry-pick (AID 687027).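 Also: luciferase reporter driven by Pax8 target thyroperoxidase promoter measured by SteadyGlo luminescence.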 It counts as functional, cell-based.

Structures are written as SMILES. The source made the active and inactive calls.

Sequence of Paired box protein Pax-8 (Q06710 whole entry): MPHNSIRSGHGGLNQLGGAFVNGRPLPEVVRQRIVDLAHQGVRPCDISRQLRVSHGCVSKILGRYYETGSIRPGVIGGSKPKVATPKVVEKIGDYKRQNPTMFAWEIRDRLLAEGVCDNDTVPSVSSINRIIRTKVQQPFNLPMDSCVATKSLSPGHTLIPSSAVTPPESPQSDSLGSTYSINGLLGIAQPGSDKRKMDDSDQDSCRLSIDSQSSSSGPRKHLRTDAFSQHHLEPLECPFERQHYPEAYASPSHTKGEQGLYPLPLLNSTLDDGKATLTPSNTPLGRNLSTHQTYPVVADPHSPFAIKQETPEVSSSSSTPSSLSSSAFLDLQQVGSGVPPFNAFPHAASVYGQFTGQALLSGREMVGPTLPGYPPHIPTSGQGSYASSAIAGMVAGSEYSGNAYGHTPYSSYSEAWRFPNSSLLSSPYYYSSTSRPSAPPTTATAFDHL
Sequence of DNA (cytosine-5)-methyltransferase 1 (P26358 whole entry): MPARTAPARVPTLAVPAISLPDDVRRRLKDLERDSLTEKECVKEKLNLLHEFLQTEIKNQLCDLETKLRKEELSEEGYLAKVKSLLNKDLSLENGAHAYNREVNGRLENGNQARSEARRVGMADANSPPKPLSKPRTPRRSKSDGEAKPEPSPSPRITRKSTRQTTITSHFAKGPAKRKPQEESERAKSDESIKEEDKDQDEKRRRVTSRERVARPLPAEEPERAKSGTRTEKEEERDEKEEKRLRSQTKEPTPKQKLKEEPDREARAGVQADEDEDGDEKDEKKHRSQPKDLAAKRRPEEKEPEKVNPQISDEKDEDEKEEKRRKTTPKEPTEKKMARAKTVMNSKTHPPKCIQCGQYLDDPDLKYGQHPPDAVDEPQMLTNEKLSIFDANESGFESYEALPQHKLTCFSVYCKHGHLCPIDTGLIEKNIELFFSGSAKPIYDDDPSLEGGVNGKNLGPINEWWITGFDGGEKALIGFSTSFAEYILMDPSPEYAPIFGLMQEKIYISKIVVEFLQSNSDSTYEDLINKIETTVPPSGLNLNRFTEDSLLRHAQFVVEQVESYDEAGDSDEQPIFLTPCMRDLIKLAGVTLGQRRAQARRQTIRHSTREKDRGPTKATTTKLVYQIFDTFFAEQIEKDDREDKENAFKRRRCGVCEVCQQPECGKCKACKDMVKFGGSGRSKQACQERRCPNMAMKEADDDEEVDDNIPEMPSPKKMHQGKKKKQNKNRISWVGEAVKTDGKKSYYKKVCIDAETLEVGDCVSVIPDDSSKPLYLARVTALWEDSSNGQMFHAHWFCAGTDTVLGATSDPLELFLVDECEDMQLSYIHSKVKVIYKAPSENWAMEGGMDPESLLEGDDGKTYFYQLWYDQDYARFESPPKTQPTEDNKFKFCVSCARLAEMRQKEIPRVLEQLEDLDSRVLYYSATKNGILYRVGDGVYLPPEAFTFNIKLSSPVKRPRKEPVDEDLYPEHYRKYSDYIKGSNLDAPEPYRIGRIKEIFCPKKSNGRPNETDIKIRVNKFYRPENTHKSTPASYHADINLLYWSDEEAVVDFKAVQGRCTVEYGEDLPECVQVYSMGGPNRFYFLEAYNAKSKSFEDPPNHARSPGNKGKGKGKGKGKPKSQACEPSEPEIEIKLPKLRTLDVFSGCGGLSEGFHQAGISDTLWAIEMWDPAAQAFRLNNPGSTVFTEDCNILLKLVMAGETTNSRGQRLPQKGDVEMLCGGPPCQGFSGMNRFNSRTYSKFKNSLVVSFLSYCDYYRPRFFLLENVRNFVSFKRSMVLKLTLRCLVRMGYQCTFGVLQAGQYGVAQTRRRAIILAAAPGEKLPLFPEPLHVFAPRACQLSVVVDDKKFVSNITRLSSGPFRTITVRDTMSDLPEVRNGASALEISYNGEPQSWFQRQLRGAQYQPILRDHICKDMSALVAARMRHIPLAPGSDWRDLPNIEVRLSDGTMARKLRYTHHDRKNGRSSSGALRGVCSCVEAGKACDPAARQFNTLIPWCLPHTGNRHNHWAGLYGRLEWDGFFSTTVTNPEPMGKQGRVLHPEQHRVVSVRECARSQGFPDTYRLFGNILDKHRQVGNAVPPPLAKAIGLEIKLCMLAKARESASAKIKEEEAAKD
Sequence of 26S proteasome non-ATPase regulatory subunit 14 (O00487 whole entry, the tested form may be a part): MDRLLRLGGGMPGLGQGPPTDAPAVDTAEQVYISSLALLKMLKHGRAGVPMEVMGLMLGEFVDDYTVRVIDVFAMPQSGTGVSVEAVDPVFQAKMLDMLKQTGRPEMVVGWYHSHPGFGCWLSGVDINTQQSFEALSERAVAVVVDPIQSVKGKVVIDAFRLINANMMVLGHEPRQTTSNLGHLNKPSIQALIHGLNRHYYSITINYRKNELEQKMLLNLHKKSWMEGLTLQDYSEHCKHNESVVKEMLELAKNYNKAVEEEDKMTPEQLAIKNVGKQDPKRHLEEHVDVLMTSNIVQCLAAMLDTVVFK

For `Cc1c2cnn(CC(=O)Nc3c(F)c(F)cc(F)c3F)c(=O)c2c(C)n1Cc1ccccc1F`, the IC50 is 7.6 µM (active) in [1]; > 100 µM (inactive) in assay [2]; 9.31 µM (active) in assay [3]; 50 µM (inactive) in assay [4]; 49.3 µM (active) in assay [5]; > 43.8 µM (inactive) in assay [6]. The IC50 is 50.5 µM (active) at Prothrombin, 19.5 µM (active) in [7] and 2.96 µM (active) in [8].

With `CCCOC(=O)c1[nH]c2c(c1C)C(=O)CC(c1cccs1)C2` (stereo not given), the EC50 in [9] is 0.615 µM (active); with BJ [10], 0.567 µM (active); in the assay with BJ [11], 1.82 µM (active); in assay [12], 0.391 µM (active); in [13], 1.01 µM (active); in assay [16], 0.167 µM (active). The EC50 in the assay on BJ [17] was 0.399 µM (active). In assay [14], the IC50 was > 80 µM (inactive). In [15], the AC50 is 0.594 µM (active).

In the case of `C[C@H](CO)N1C[C@H](C)[C@@H](CN(C)CC2CCOCC2)Oc2ncc(Br)cc2C1=O`, the AC50 in assay [18] is 36.4 µM (active).

In the case of `Nc1nc2ccc(Cl)cc2cc1C(=O)NCCCN1CCOCC1`, the EC50 on Kallikrein-7 was 28.3 µM (inactive).

Take `CN1CCS/C1=C/C=C1/SC(=S)N(Cc2ccccc2)C1=O`: the results for the IC50 on Fibrinogen beta chain [19] and on Fibrinogen beta chain [20] were 10.2 µM (inactive) and > 83.3 µM (inactive), respectively.

Take `[N-]=[N+]=NCCOCCNC(=O)CCCn1cc(C[S+]([O-])c2nnc(-c3ccc(F)cc3)o2)nn1` (stereo not given): in assay [21], the IC90 was 125 µM (active).

Turning to `C[C@@H]1CN([C@H](C)CO)S(=O)(=O)c2ccc(C#Cc3ccc(F)cc3)cc2O[C@H]1CN(C)C(=O)NC1CCCCC1`, the AC50 in assay [22] was 48.1 µM (active); on Paired box protein Pax-8, 9.47 µM (active).
